# Reference: US9353082B2, “Pharmaceutical compounds” (BIAL—PORTELA & CA, S.A., priority 2008, dated 2016)
# Where a name gives a salt, the structure may show the parent alone.
# Key:
# FAAH [1] = molecular target: T1, FAAH (Mus musculus, UniProt O08914); test: In vivo FAAH inhibition after oral dosing, remaining activity in brain homogenate (BRh, central nervous tissue); set-up: species or system NMRI mice; conditions: brain homogenate, low value = strong inhibitor; for In Vivo BRh 3 mg·kg 8 h (remaining FAAH activity, % of control): 8 h after dosing
# T1 construct: A fragment of liver, left lung lobe and brain without cerebellum were removed; from tissue; host or cells: male NMRI mice; brain (without cerebellum) and liver homogenates
# T1 sequence (O08914 1-579): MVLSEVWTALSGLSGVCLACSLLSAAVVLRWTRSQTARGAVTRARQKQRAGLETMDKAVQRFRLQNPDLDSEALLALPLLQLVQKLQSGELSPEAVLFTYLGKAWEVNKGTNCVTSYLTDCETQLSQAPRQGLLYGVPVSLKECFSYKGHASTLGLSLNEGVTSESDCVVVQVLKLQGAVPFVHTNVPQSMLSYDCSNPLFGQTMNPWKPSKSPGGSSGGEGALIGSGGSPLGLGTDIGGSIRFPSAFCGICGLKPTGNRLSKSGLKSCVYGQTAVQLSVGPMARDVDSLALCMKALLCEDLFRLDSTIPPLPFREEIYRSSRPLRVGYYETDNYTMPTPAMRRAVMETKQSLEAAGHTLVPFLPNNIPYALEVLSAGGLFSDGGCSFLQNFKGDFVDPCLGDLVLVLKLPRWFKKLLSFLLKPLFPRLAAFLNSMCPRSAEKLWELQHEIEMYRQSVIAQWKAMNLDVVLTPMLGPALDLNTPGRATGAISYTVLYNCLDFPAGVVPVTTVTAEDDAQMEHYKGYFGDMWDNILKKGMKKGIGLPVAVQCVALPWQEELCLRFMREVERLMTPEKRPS
# Method: (§1) The in vivo test was performed according to the protocol described below. BRh indicates inhibition in central nervous tissue and LVh indicates inhibition in peripheral tissue, in this case liver.
# (§2) The animals used for experiments were male NMRI mice (weighing 27-44 g) obtained from Interfauna Ibérica (Spain). Mice were kept 5 per cage, under controlled environmental conditions (12 hr light/dark cycle and room temperature 22±1° C.). Food and tap water were allowed ad libitum and the experiments were all carried out during daylight hours.
# (§3) Animals were administered 30 mg/kg or 3 mg/kg compounds of the invention via oral route (8 ml/kg; compound suspended in 0.5% carboxymethylcellulose (CMC) or solubilized in water) or vehicle (controls) using animal feeding stainless steel curve needles (Perfectum, U.S.A.). Fifteen minutes before sacrifice animal were anesthetized with pentobarbital 60 mg/kg administered intraperitoneally. A fragment of liver, left lung lobe and brain without cerebellum were removed and put in plastic vials containing membrane buffer (3 mM MgCl2, 1 mM EDTA, 50 mM Tris HCl pH 7.4). Tissues were stored at −30° C. until analysis.
# (§4) Animals were always fasted overnight before administration of compounds except for time points of >18 h, where food was removed on the morning of day of administration and the compound was administered in the afternoon of the same day. Animals were then given water but nothing else.
# (§5) Tissues were thawed on ice and were homogenized in 10 volumes of membrane buffer (3 mM MgCl2, 1 mM EDTA, 50 mM Tris HCl pH 7.4) with either Potter-Elvejhem (brains—8 strokes at 500 rpm) or Heidolph Diax (livers—2 strokes at position 5 for 20 sec with 30 sec pauses).
# (§6) Total protein in tissues was determined with the BioRad Protein Assay (BioRad) using a standard curve of BSA (50-250 μg/ml).
# (§7) Reaction mix (total volume of 200 μl) contained: […] (2 μM AEA+5 nM ^3H-AEA), 0.1% fatty acid free BSA, 15 μg (brain), 5 μg (liver) or 50 μg (lung) protein, in 1 mM EDTA, 10 mM Tris pH 7.6. After a […] pre-incubation period at 37° C., reaction was started by the addition of the substrate solution (cold AEA+radiolabelled AEA+BSA). Reaction was carried out for 10 min (brain and lung) or […] (liver) before termination by the addition of 400 μl activated charcoal suspension (8 g charcoal in 32 ml 0.5 M HCl in continuous agitation). After a […] incubation period at room temperature with agitation, charcoal was sedimented by centrifugation in microfuge (10 min at 13000 rpm). 200 μl of the supernatant were added to 800 μl Optiphase Supermix scintillation cocktail previously distributed in 24-well plates. Counts per minute (cpm) were determined in a MicrobetaTriLux scintillation counter.
# (§8) In each assay blanks (without protein) were prepared.
# (§9) The percentage of remaining enzymatic activity was calculated in respect to controls and after blank subtraction.
# FAAH [2] = molecular target: T1, FAAH; test: In vivo FAAH inhibition after oral dosing, remaining activity in liver homogenate (LVh, peripheral tissue); set-up: species or system NMRI mice; conditions: liver homogenate, low value = strong inhibitor; for In Vivo LVh 3 mg·kg 8 h (remaining FAAH activity, % of control): 8 h after dosing
# Method: as §1, §2, §3, §4, §5, §6, §7, §8, §9
# FAAH [3] = molecular target: T2, FAAH (Rattus norvegicus, UniProt P97612); test: In vitro FAAH activity in rat brain membranes, 3H-AEA substrate, % of control; format: biochemical, Wistar rats; conditions: low value = strong inhibitor; for In Vitro FAAH activity, 100 nM: 100 nM test compound; for In Vitro FAAH activity, 10 uM: 10 uM test compound
# T2 construct: Frozen brains (without cerebellum) from Wistar rats were used; from tissue; host or cells: Wistar rat brain (without cerebellum), washed membrane pellets
# T2 sequence (P97612 1-579): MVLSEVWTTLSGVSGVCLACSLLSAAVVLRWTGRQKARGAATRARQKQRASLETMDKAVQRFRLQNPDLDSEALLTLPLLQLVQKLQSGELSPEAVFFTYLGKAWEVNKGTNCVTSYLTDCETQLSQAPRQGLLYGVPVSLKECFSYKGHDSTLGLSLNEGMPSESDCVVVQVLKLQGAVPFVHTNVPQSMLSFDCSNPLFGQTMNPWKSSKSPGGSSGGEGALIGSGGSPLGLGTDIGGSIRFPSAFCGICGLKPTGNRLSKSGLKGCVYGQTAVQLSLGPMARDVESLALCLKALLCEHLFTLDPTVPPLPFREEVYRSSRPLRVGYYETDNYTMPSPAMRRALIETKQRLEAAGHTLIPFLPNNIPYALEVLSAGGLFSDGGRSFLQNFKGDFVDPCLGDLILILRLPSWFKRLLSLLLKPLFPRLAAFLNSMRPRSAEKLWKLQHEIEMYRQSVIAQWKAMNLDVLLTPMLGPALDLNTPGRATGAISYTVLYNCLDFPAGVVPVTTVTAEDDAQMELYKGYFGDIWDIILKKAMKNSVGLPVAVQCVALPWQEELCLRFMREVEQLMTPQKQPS
# In short: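 FAAH activity measured as 3H-ethanolamine released from 2 μM [3H]AEA over 10 min by rat brain membrane preparation, after 15 min 37 °C preincubation with test compound at 10 or 0.1 μM. Charcoal-separated supernatant scintillation-counted; values expressed as % of control minus no-protein blank.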
Compound,"In Vitro FAAH activity, 100 nM (FAAH [3])",other results
"CN(C(=O)n1cnc(-c2cccc(C(=O)NO)c2)c1)[C@H]1CC[C@H](O)CC1 [Compound 566, 4-(3-(hydroxycarbamoyl)phenyl)-N-((1r,4r)-4-hydroxycyclohexyl)-N-methyl-1H-imidazole-1-carboxamide]",,"In Vivo BRh 3 mg · kg · 8 h (remaining FAAH activity) (FAAH [1]; 3 mg/kg oral, 8 h): 88.5 % of control; In Vivo LVh 3 mg · kg · 8 h (remaining FAAH activity) (FAAH [2]; 3 mg/kg oral, 8 h): 69.8 % of control"
"COc1ccc(-c2cn(C(=O)N(C)C3CCOCC3)cn2)cc1N [Compound no. 468, 4-(3-amino-4-methoxyphenyl)-N-methyl-N-(tetrahydro-2H-pyran-4-yl)-1H-imidazole-1-carboxamide]",,"In Vivo BRh 3 mg·kg 8 h (remaining FAAH activity, % of control) (FAAH [1]): 4.7 % of control; In Vivo LVh 3 mg·kg 8 h (remaining FAAH activity, % of control) (FAAH [2]): 4.3 % of control"
"CN(C(=O)n1cnc(-c2ccc(O)cc2)c1)C1CCN(Cc2ccccc2)CC1 [Compound no. 451, N-(1-benzylpiperidin-4-yl)-4-(4-hydroxyphenyl)-N-methyl-1H-imidazole-1-carboxamide hydrobromide]",,"In Vivo BRh 3 mg·kg 8 h (remaining FAAH activity, % of control) (FAAH [1]): 1.1 % of control; In Vivo LVh 3 mg·kg 8 h (remaining FAAH activity, % of control) (FAAH [2]): 0.3 % of control"
"CC1(C)OC(c2ccccc2)CN1C(=O)n1cnc(-c2ccccc2)c1 (centres unmarked) [Compound 298, (2,2-dimethyl-5-phenyloxazolidin-3-yl)(4-phenyl-1H-imidazol-1-yl)methanone]",,"In Vivo BRh 3 mg·kg 8 h (remaining FAAH activity, % of control) (FAAH [1]): 74.4 % of control; In Vivo LVh 3 mg·kg 8 h (remaining FAAH activity, % of control) (FAAH [2]): 59.2 % of control"
"Cl.O=C(N1CCC(N2CCCCC2)CC1)n1nnc2ccccc21 [Compound 82, 1,4′-bipiperidin-1′-yl(1H-benzo[d][1,2,3]triazol-1-yl)methanone hydrochloride]",69.3 % of control,
"CN(C(=O)n1cnc(-c2ccc(Cl)cc2)c1)c1ccccc1 [Compound 27, 4-(4-chlorophenyl)-N-methyl-N-phenyl-1H-imidazole-1-carboxamide]",71.4 % of control,"In Vitro FAAH activity, 10 uM (FAAH [3]): 0.2 % of control"
"O=C(N1CCOCC1)n1cnc(-c2ccccc2)c1 [Compound 3, morpholino(4-phenyl-1H-imidazol-1-yl)methanone]",,"In Vitro FAAH activity, 10 uM (FAAH [3]): 4.8 % of control"
"O=C(N1CCOCC1)n1ccc(-c2ccccc2)n1 [Compound 13, morpholino(3-phenyl-1H-pyrazol-1-yl)methanone]",,"In Vitro FAAH activity, 10 uM (FAAH [3]): 89.7 % of control"
"O=C(N1CCN(C2CCCC2)CC1)n1nnc2ccccc21 [Compound 154, (1H-benzo[d][1,2,3]triazol-1-yl)(4-cyclopentylpiperazin-1-yl)methanone]",0.2 % of control,
"COc1ccc(-c2cn(C(=O)N(C)C3CCCC3)cn2)cc1OC [Compound 281, N-cyclopentyl-4-(3,4-dimethoxyphenyl)-N-methyl-1H-imidazole-1-carboxamide]",,"In Vitro 100 nM (FAAH activity, % of control) (FAAH [3]; rat brain membranes, compound at 100 nM): 25.5 % of control"
"O=C(N1CCOCC1)n1ccnc1 [Compound 1, (1H-imidazol-1-yl)(morpholino)methanone]",,"In Vitro FAAH activity, 10 uM (FAAH [3]): 62.6 % of control"
"COc1ccc(-c2ncn(C(=O)N(C)c3ccc(F)cc3)n2)cc1 [Compound 66, N-(4-fluorophenyl)-3-(4-methoxyphenyl)-N-methyl-1H-1,2,4-triazole-1-carboxamide]",80.9 % of control,
"CN(C(=O)n1nnc2ccc(-c3ccc(F)cc3)cc21)C1CCCCC1 [Compound 106, N-cyclohexyl-6-(4-fluorophenyl)-N-methyl-1H-benzo[d][1,2,3]triazole-1-carboxamide]",2.3 % of control,
"CN(C(=O)n1nnc2ccc(-c3cccc(C(N)=O)c3)cc21)C1CCCCC1 [Compound 109, 6-(3-carbamoylphenyl)-N-cyclohexyl-N-methyl-1H-benzo[d][1,2,3]triazole-1-carboxamide]",0 % of control,
"CON(C)C(=O)n1nnc2ccccc21 [Compound 169, N-methoxy-N-methyl-1H-benzo[d][1,2,3]triazole-1-carboxamide]",73.6 % of control,

# More lines, main results first:
"In Vitro FAAH activity, 100 nM (FAAH [3])",Compound,other results
0.8 % of control,"Cl.O=C(N1CCN(C2CCCCC2)CC1)n1cnc(-c2ccc(Cl)cc2)n1 [Compound 212, (3-(4-chlorophenyl)-1H-1,2,4-triazol-1-yl)(4-cyclohexylpiperazin-1-yl)methanone hydrochloride]",
107.7 % of control,"O=C(N1CCS(=O)(=O)C1)n1cnc(-c2ccc(Cl)cc2)n1 [Compound 253, 3-(4-chlorophenyl)-1-[(1,1-dioxido-1,3-thiazolidin-3-yl)carbonyl]-1H-1,2,4-triazole]",
105.6 % of control,"COc1cccc(-c2cn(C(=O)N(Cc3ccccc3)C(C)(C)C)cn2)c1 [Compound 256, N-benzyl-N-tert-butyl-4-(3-methoxyphenyl)-1H-imidazole-1-carboxamide]",
31.6 % of control,"NC(=O)c1ccc(Oc2cccc(-c3ncn(C(=O)N4CCc5ccccc5C4)n3)c2)cc1 [Compound 207, 4-(3-(1-(1,2,3,4-tetrahydroisoquinoline-2-carbonyl)-1H-1,2,4-triazol-3-yl)phenoxy)benzamide]",
0.2 % of control,"CCOC(=O)C1CCN(C(=O)n2nnc3ccccc32)CC1 [Compound 176, ethyl 1-(1H-benzo[d][1,2,3]triazole-1-carbonyl)piperidine-4-carboxylate]",
78.2 % of control,"O=C(OCCN(C(=O)n1cnc(-c2ccccc2)c1)C1=CCCC1)n1cnc(-c2ccccc2)c1 [Compound 234, 2-(N-cyclopentenyl-4-phenyl-1H-imidazole-1-carboxamido)ethyl 4-phenyl-1H-imidazole-1-carboxylate]",
